Data published in ChEMBL document CHEMBL1667859 (Bioorg Med Chem, 2011).

These molecules were tested against 5-hydroxytryptamine receptor 6 (Homo sapiens, UniProt P50406).
5-hydroxytryptamine receptor 6, sequence (P50406 whole entry): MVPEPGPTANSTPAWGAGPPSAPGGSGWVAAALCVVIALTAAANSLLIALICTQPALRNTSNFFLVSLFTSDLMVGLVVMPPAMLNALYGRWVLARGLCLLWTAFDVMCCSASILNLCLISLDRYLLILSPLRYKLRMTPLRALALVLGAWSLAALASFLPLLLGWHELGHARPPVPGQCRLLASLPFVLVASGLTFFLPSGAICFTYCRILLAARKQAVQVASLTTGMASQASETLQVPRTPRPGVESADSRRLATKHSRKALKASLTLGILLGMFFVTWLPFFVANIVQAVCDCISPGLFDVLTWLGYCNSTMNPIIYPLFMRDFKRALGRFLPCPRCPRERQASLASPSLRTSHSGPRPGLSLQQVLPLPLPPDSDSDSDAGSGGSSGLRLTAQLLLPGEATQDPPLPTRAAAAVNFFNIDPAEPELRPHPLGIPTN
Description: Antagonist activity at human recombinant 5HT6 receptor expressed in HEK293 cells assessed as inhibition of serotonin-induced cAMP accumulation after 2 hrs

| SMILES | Ki |
| --- | --- |
| CSc1nn2cccnc2c1S(=O)(=O)c1ccccc1 | 115 nM |
| CSc1nn2c(C)cc(C)nc2c1S(=O)(=O)c1ccccc1 | 1.2 nM |
| CSc1nn2ccc(C)nc2c1S(=O)(=O)c1ccccc1 | 16.6 nM |
| CSc1nn2c(C)ccnc2c1S(=O)(=O)c1ccccc1 | 16.6 nM |
| CNc1nn2c(C)cc(COC)nc2c1S(=O)(=O)c1ccccc1 | 0.269 nM |
| CNc1nn2c(CO)cc(C)nc2c1S(=O)(=O)c1ccccc1 | 0.282 nM |
| COCc1cc(C)nc2c(S(=O)(=O)c3ccccc3)c(SC)nn12 | 155 nM |
| COCc1cc(C)n2nc(SC)c(S(=O)(=O)c3ccccc3)c2n1 | 3.24 nM |
| CSc1nn2c(CO)cc(C)nc2c1S(=O)(=O)c1ccccc1 | 0.562 nM |
| CSc1nn2c(C)cc(CO)nc2c1S(=O)(=O)c1ccccc1 | 2.14 nM |
| CSc1nn2cccnc2c1S(=O)(=O)c1cccc(Cl)c1 | 15.1 nM |
| CSc1nn2c(C)cc(C)nc2c1S(=O)(=O)c1cccc(Cl)c1 | 0.759 nM |
| CSc1nn2c(C)cc(C)nc2c1S(=O)(=O)c1cccc(F)c1 | 1.07 nM |
| CSc1nn2c(C)cc(C)nc2c1S(=O)(=O)c1ccc(Cl)cc1 | 3.16 nM |
| CSc1nn2c(C)cc(C)nc2c1S(=O)(=O)c1ccc(F)cc1 | 6.76 nM |
| CSc1nn2cccnc2c1S(=O)(=O)c1ccc(F)cc1 | 132 nM |
| CSc1nn2c(C)cc(C)nc2c1S(=O)(=O)c1ccc(O)cc1 | 3.98 nM |
| COc1ccc(S(=O)(=O)c2c(SC)nn3c(C)cc(C)nc23)cc1 | 37.2 nM |

| SMILES | Ki |
| --- | --- |
| CSc1nn2c(C)cc(C)nc2c1S(=O)(=O)c1ccc(N(C)C)cc1 | 37.2 nM |
| CSc1nn2cccnc2c1S(=O)(=O)c1ccc(F)c(Cl)c1 | 44.7 nM |
| CSc1nn2c(C)cc(C)nc2c1S(=O)(=O)c1ccc(F)c(Cl)c1 | 3.8 nM |
| CSc1nn2ccc(C)nc2c1S(=O)(=O)c1ccc(F)c(Cl)c1 | 7.94 nM |
| CNc1nn2cccnc2c1S(=O)(=O)c1ccccc1 | 3.89 nM |
| CNc1nn2c(C)cc(C)nc2c1S(=O)(=O)c1ccccc1 | 0.257 nM |
| CNc1nn2ccc(C)nc2c1S(=O)(=O)c1ccccc1 | 1.45 nM |
| CNc1nn2c(C)ccnc2c1S(=O)(=O)c1ccccc1 | 0.24 nM |
| CNc1nn2c(COC)cc(C)nc2c1S(=O)(=O)c1ccccc1 | 7.59 nM |
| CNc1nn2c(C)cc(CO)nc2c1S(=O)(=O)c1ccccc1 | 0.479 nM |
| CNc1nn2cccnc2c1S(=O)(=O)c1cccc(Cl)c1 | 1.17 nM |
| CNc1nn2c(C)cc(C)nc2c1S(=O)(=O)c1cccc(Cl)c1 | 0.186 nM |
| CNc1nn2c(C)cc(C)nc2c1S(=O)(=O)c1cccc(F)c1 | 0.501 nM |
| CNc1nn2c(C)cc(C)nc2c1S(=O)(=O)c1ccc(F)cc1 | 0.398 nM |
| CNc1nn2cccnc2c1S(=O)(=O)c1ccc(F)cc1 | 11.7 nM |
| CNc1nn2c(C)cc(C)nc2c1S(=O)(=O)c1ccc(O)cc1 | 2 nM |
| CNc1nn2c(C)cc(C)nc2c1S(=O)(=O)c1ccc(OC)cc1 | 9.55 nM |
| CNc1nn2c(C)cc(C)nc2c1S(=O)(=O)c1ccc(F)c(Cl)c1 | 0.603 nM |
